Values quoted from earlier work as cited in US20100179144A1, “QUINAZOLINE DERIVATIVES AS P13 KINASE INHIBITORS” (priority 2007, published 2010).

System: Class I PI3-kinases
Conditions: about; Fruman et al. 1998; read-out: IC50 against each of these PI3-kinases

O=c1cc(N2CCOCC2)oc2c(-c3ccccc3)cccc12 [LY294002]
IC50: 15 to 20 µM
